Species on record: Rattus norvegicus
Assay: DrugMatrix - Regimen: Daily Repeat
Format: toxicity, organism-based, Sprague-Dawley
Design: regimen Daily Repeat, gender Male, age 6-8 weeks
Settings: in vivo, po, route oral GAVAGE, […]; for ABSOLUTE BASOPHIL / ABSOLUTE EOSINOPHIL / ABSOLUTE LYMPHOCYTE / ABSOLUTE MONOCYTE / ABSOLUTE SEGMENTED NEUTROPHIL / BASOPHIL / EOSINOPHIL / ERYTHROCYTE COUNT / HEMATOCRIT / HEMOGLOBIN / LEUKOCYTE COUNT / LYMPHOCYTE / MEAN CORPUSCULAR HEMOGLOBIN / MEAN CORPUSCULAR HEMOGLOBIN CONCENTRATION / MEAN CORPUSCULAR VOLUME / MONOCYTE / NEUTROPHIL / NUCLEATED RED BLOOD CELLS / PLATELET COUNT: tissue Blood; for ALANINE AMINOTRANSFERASE / ALBUMIN / ALKALINE PHOSPHATASE / ASPARTATE AMINOTRANSFERASE / BLOOD UREA NITROGEN / CARBON DIOXIDE / CHLORIDE / CHOLESTEROL / CREATINE PHOSPHOKINASE / CREATININE / GLUCOSE / LACTATE DEHYDROGENASE / LIPASE / PHOSPHORUS / POTASSIUM / SODIUM / TOTAL BILIRUBIN / TOTAL PROTEIN / URIC ACID: tissue Plasma
[1] = 100 mg/kg, 120 h, dose level Low, time 5 day
[2] = 448 mg/kg, 72 h, dose level High, time 3 day
[3] = 448 mg/kg, 120 h, dose level High, time 5 day

## CC(C)(Oc1ccc(Cl)cc1)C(=O)O [CLOFIBRIC ACID]
[1]
  ABSOLUTE BASOPHIL: 0 CELLS/uL
  ABSOLUTE EOSINOPHIL: 54.67 CELLS/uL
  ABSOLUTE LYMPHOCYTE: 12665.33 CELLS/uL
  ABSOLUTE MONOCYTE: 34.33 CELLS/uL
  ABSOLUTE SEGMENTED NEUTROPHIL: 1712.33 CELLS/uL
  BASOPHIL: 0%
  EOSINOPHIL: 0.33%
  ERYTHROCYTE COUNT: 5.75 x10E6/uL
  HEMATOCRIT: 35.5%
  HEMOGLOBIN: 14.03 G/DL
  LEUKOCYTE COUNT: 14.47 x10E3/uL
  LYMPHOCYTE: 87%
  MEAN CORPUSCULAR HEMOGLOBIN: 24.43 pg
  MEAN CORPUSCULAR HEMOGLOBIN CONCENTRATION: 39.53 G/DL
  MEAN CORPUSCULAR VOLUME: 61.77 fL
  MONOCYTE: 0.33%
  NEUTROPHIL: 12.33%
  NUCLEATED RED BLOOD CELLS: 0.33 /100WBC
  PLATELET COUNT: 1147.33 x10E3/uL
  ALANINE AMINOTRANSFERASE: 63.67 u/L
  ALBUMIN: 4.37 G/DL
  ALKALINE PHOSPHATASE: 342 u/L
  ASPARTATE AMINOTRANSFERASE: 93.33 u/L
  BLOOD UREA NITROGEN: 15 mg/dL
  CARBON DIOXIDE: 28 mmol/L
  CHLORIDE: 101.33 MEQ/L
  CHOLESTEROL: 50.67 mg/dL
  CREATINE PHOSPHOKINASE: 370.33 u/L
  CREATININE: 0.2 mg/dL
  GLUCOSE: 145.33 mg/dL
  LACTATE DEHYDROGENASE: 275.67 u/L
  LIPASE: 9.67 u/L
  PHOSPHORUS: 11.03 mg/dL
  POTASSIUM: 5.96 MEQ/L
  SODIUM: 142.3 MEQ/L
  TOTAL BILIRUBIN: 0.2 mg/dL
  TOTAL PROTEIN: 5.73 G/DL
  URIC ACID: 1.23 mg/dL
[2]
  ABSOLUTE BASOPHIL: 0 CELLS/uL
  ABSOLUTE EOSINOPHIL: 0 CELLS/uL
  ABSOLUTE LYMPHOCYTE: 10222.33 CELLS/uL
  ABSOLUTE MONOCYTE: 204.67 CELLS/uL
  ABSOLUTE SEGMENTED NEUTROPHIL: 1606.33 CELLS/uL
  BASOPHIL: 0%
  EOSINOPHIL: 0%
  ERYTHROCYTE COUNT: 5.53 x10E6/uL
  HEMATOCRIT: 33.9%
  HEMOGLOBIN: 13.1 G/DL
  LEUKOCYTE COUNT: 12.03 x10E3/uL
  LYMPHOCYTE: 85%
  MEAN CORPUSCULAR HEMOGLOBIN: 23.73 pg
  MEAN CORPUSCULAR HEMOGLOBIN CONCENTRATION: 38.63 G/DL
  MEAN CORPUSCULAR VOLUME: 61.37 fL
  MONOCYTE: 1.67%
  NEUTROPHIL: 13.33%
  NUCLEATED RED BLOOD CELLS: 0 /100WBC
  PLATELET COUNT: 1067.33 x10E3/uL
  ALANINE AMINOTRANSFERASE: 82.33 u/L
  ALBUMIN: 4.4 G/DL
  ALKALINE PHOSPHATASE: 525.33 u/L
  ASPARTATE AMINOTRANSFERASE: 118.33 u/L
  BLOOD UREA NITROGEN: 13.33 mg/dL
  CARBON DIOXIDE: 33 mmol/L
  CHLORIDE: 98.33 MEQ/L
  CHOLESTEROL: 39 mg/dL
  CREATINE PHOSPHOKINASE: 203.67 u/L
  CREATININE: 0.14 mg/dL
  GLUCOSE: 149.33 mg/dL
  LACTATE DEHYDROGENASE: 172.67 u/L
  LIPASE: 8 u/L
  PHOSPHORUS: 11.27 mg/dL
  POTASSIUM: 6.66 MEQ/L
  SODIUM: 140.57 MEQ/L
  TOTAL BILIRUBIN: 0.17 mg/dL
  TOTAL PROTEIN: 5.33 G/DL
  URIC ACID: 1.37 mg/dL
[3]
  ABSOLUTE BASOPHIL: 0 CELLS/uL
  ABSOLUTE EOSINOPHIL: 0 CELLS/uL
  ABSOLUTE LYMPHOCYTE: 14966.67 CELLS/uL
  ABSOLUTE MONOCYTE: 437.33 CELLS/uL
  ABSOLUTE SEGMENTED NEUTROPHIL: 2729.33 CELLS/uL
  BASOPHIL: 0%
  EOSINOPHIL: 0%
  ERYTHROCYTE COUNT: 5.64 x10E6/uL
  HEMATOCRIT: 35.03%
  HEMOGLOBIN: 13.4 G/DL
  LEUKOCYTE COUNT: 18.13 x10E3/uL
  LYMPHOCYTE: 82.67%
  MEAN CORPUSCULAR HEMOGLOBIN: 23.77 pg
  MEAN CORPUSCULAR HEMOGLOBIN CONCENTRATION: 38.27 G/DL
  MEAN CORPUSCULAR VOLUME: 62.17 fL
  MONOCYTE: 2.33%
  NEUTROPHIL: 15%
  NUCLEATED RED BLOOD CELLS: 0 /100WBC
  PLATELET COUNT: 1012.67 x10E3/uL
  ALANINE AMINOTRANSFERASE: 61 u/L
  ALBUMIN: 4.6 G/DL
  ALKALINE PHOSPHATASE: 409.33 u/L
  ASPARTATE AMINOTRANSFERASE: 90.67 u/L
  BLOOD UREA NITROGEN: 17.33 mg/dL
  CARBON DIOXIDE: 28.33 mmol/L
  CHLORIDE: 106.67 MEQ/L
  CHOLESTEROL: 46.33 mg/dL
  CREATINE PHOSPHOKINASE: 195.67 u/L
  CREATININE: 0.19 mg/dL
  GLUCOSE: 158 mg/dL
  LACTATE DEHYDROGENASE: 194.33 u/L
  LIPASE: 9.33 u/L
  PHOSPHORUS: 9.7 mg/dL
  POTASSIUM: 6.4 MEQ/L
  SODIUM: 149.4 MEQ/L
  TOTAL BILIRUBIN: 0.1 mg/dL
  TOTAL PROTEIN: 5.63 G/DL
  URIC ACID: 1.5 mg/dL

Reference: ChEMBL document CHEMBL3885881, “DrugMatrix”
